Laboratory results reported in US8785434B2, “Antiviral compounds” (Prosetta Antiviral Inc., priority 2010, dated 2014).

Tested on: respiratory viruses (Corona Virus on MRC5 Cells, Influenza Virus A on MDCK Cells, Respiratory Syncytial Virus on HEp2 cells, Adenovirus serotype 5 on A549 …)
Test: Respiratory viruses: virus grown in the presence of compound, infectious virus titrated by TCID50
Type: cell-based
Conditions: qualitative statement; compound tested at 10 μM, 2 μM, 0.4 μM and 0.08 μM
Description: The activities of compounds of the invention were determined for the following viruses using the protocol below:
Corona Virus on MRC5 Cells
Influenza Virus A on MDCK Cells
Respiratory Syncytial Virus on HEp2 cells
Adenovirus serotype 5 on A549 cells
Human Rhinovirus on H1Hela Cells
Herpes Simplex Virus 1 on Vero cells
Virus was grown in the presence of four dilutions (10 μM, 2 μM, 0.4 μM and 0.08 μM) of the chemical compound tested with two controls using standard methods and materials for the relevant virus. The infected cell extract was collected using known methods, and the infectious virus concentration was determined using standard techniques.
Each well was titrated by TCID50. Four serial dilutions in quadruplicate required to determine the titer of each well. To assay 36 replicates as directed, one hundred eight (108) 96-well plates will be required. Each drug was tested at four dilutions against one virus will require TCID50 titers of 18 sample wells.

## Cc1cc(N(C)C)cc2[s+]c3cc(N4CCN(C)CC4)cc(C)c3nc12.[I-] [3-(Dimethylamino)-1,9-dimethyl-7-(4-methylpiperazin-1-yl)phenothiazin-5-ium iodide]
  activity across all of the respiratory viruses tested (pan-respiratory anti-viral activity): surprisingly strong activity across all of the respiratory viruses tested
